What was measured:
HDAC1 = HDAC1 (Homo sapiens, UniProt Q13547); test: Homogeneous ZMAL-based fluorescence assay for HDAC1; type: biochemical
Protocol: The inhibition of HDAC1 and 6 by the S1th and PR-619 was determined via the ZMAL-assay according to the same general procedure described for sirtuins (2.2.1). 5 μL substrate (10.5 μM final assay concentration) were mixed with 3 μL of inhibitor in DMSO or DMSO and 10 μL of HDAC solution (concentration adjusted to 15–30% conversion) and filled up to 60 μL with assay buffer (50 mM Tris, 137 mM NaCl, 1 mM MgCl2, 2,7 mM KCl, 1 mg/ml BSA, pH = 8.0). The mixture was incubated at 37°C and 140 rpm for 1.5 h. For the stop solution Trichostatin A (3.3 μM) was used instead of nicotinamide. Fluorescence intensity was measured as described above. An enzyme free blank control and an AMC containing 100% control were performed as well and inhibition was calculated in % in relation to a DMSO control.

HeLa cells = test: Cell proliferation assay with HeLa cells; type: cell-based, human; conditions: EX-527 20 μM, S1th 13 12 μM, S1th 12 20 μM, S1th 10 30 μM; up to 120 h
Protocol: 1.5 × 10^4 cells/well were seeded in 24-well plates and grown in DMEM 10% in presence of DMSO, 20 μM EX-527, 12 μM S1th 13, 20 μM S1th 12, or 30 μM S1th 10. The growth media containing the drugs was replaced every 48 h. Cells were collected and counted at the indicated times starting 24 h after seeding (0, 24, 48, 72, 96, and 120 h). The experiment was performed twice in duplicates.

[1] = system: γH2AX/H2AX levels in MEF cells; test: γH2AX level determination by western blot; type: cell-based, mouse; conditions: 48 h, EX-527 10 μM, S1th 10 30 μM, S1th 12 20 μM, S1th 13 12 μM, SirReal2 30 μM
Protocol: Sirt1 WT and KO MEFS cells were treated with 10 μM EX-527, 12 μM S1th 13 (6), 20 μM S1th 12 (5), 30 μM S1th 10 (7) and 30 μM SirReal2 [Sirt2 inhibitor, synthesized according to ([62])] for 48 h. Oxidative stress was induced using 10 μM Camptothecin 2 h. Whole-cell extracts were performed according to the Dignam protocol ([63]). Primary antibodies used for the western blot were anti-H2AX and anti-γH2AX (ab11175 and ab2893 resp., Abcam, UK). Densiometric analysis of the western blots was performed with Quantity One software (Bio-Rad Laboratories, Inc., USA).

[2] = system: H3K9ac and p53K382ac in HeLa cells; test: Analysis of acetylation status in HeLa cells by western blotting; type: cell-based, human; conditions: 48 h; concentrations as in proliferation assay
Protocol: 5 × 10^4 cells were plated in 6-well plates and grown with the conditions and drug concentrations as described for the proliferation assay. Cells were harvested at 48 h and resuspendend in protein loading buffer. After sonication the samples were centrifuged at 14,000 rpm in an Eppendorf microcentrifuge (Eppendorf, DE) and the supernatants were analyzed by western-blot. The following antibodies were used: histone H3 (Cell Signaling #9715), histone H3K9ac (Cell Signaling # C5B11), GAPDH (Cell Signaling #D16H11), p53 (ThermoFisher #PA527822), and p53K382ac (Abcam 75754). Quantification was carried out using imageJ.

Chain of HDAC1 (Q13547 whole entry, species assumed): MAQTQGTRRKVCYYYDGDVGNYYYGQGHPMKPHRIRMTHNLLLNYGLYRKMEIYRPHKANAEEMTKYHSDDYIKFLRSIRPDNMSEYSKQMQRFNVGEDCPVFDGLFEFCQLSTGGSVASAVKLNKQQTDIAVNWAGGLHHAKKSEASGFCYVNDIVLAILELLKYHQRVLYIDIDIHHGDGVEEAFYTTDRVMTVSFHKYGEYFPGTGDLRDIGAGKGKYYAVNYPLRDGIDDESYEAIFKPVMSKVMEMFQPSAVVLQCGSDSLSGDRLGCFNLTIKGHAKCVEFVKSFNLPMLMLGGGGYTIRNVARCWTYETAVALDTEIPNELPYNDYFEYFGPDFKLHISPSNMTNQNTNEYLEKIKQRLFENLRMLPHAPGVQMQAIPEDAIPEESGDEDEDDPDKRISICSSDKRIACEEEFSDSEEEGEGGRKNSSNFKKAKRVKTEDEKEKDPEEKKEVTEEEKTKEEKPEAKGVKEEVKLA

SMILES | inhibition at 100 µM (HDAC1) [%] | residual activity HDAC1 (HDAC1) | cell proliferation of HeLa cells (HeLa cells) | γH2AX/H2AX levels without Camptothecin [1] | H3K9 acetylation in HeLa cells [2] | p53K382 acetylation in HeLa cells [2]
N#CSc1cc(SC#N)c(N)nc1N [PR-619, reference compound] | 54 | ~ 50% | – | – | – | –
N#CSc1cccc(NC(=O)[C@H]2CC=CC[C@H]2C(=O)O)c1 [S1th 10] | < 10 | – | significantly decreased cell proliferation | decreased | clear effect on acetylation | clear effect on acetylation
CCCCNC(=O)Nc1cccc(SC#N)c1 [S1th 11] | < 10 | – | – | – | – | –
COc1ccc(SC#N)cc1OCC(=O)N(CCC#N)CCC#N [S1th 12] | < 10 | – | only showed a mild effect | decreased | clear effect on acetylation | clear effect on acetylation
N#CSc1cccc(NS(=O)(=O)c2ccc3c(c2)OCCO3)c1 [S1th 13] | < 10 | – | significantly decreased cell proliferation | decreased | clear effect on acetylation | clear effect on acetylation
